Several values for one entry are separate records, joined by “and”; a condition that tells them apart may be missing. Equal entries are not always repeated. Where two headings read alike, the source gives them in different places.
Columns and labels:
BRISC = target: T1, BRISC (Homo sapiens, UniProt P46736+Q15018+Q9NXR7); experiment: BRISC DUB activity assay (IQF K63-linked diubiquitin); type: biochemical
T1 construct: made in house; host or cells: Spodoptera frugiperda (Sf9) insect cells, MultiBac
In short: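 Enzyme at 1 nM (BRISC WT or mutant) hydrolysed 50 nM IQF K63 diubiquitin in 50 mM HEPES–NaOH pH 7.0, 100 mM NaCl buffer at 30 °C. Kinetic fluorescence at 544/575 nm gave V0 over 30 min. Dose–response curves were fitted with variable slope to give IC50.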

[1] = system: IFNAR1 cell surface levels in sgROSA MCF10A cells; experiment: MCF10A sgROSA IFNAR1 cell surface levels (FACS); type: cell-based, human
Method: To study the direct effect of BRISC DUB inhibitors, IFNAR1 surface levels were measured using flow cytometry (FACS) analysis. For this purpose, MCF10A WT and MCF10A BRCC45 KO cells expressing […]
BRCC45 WT or BRCC45 R137A were used. […]
minutes prior to the addition of 50 ng/mL of hIFN-Iα for various time points (45 minutes and 90 minutes).
After IFN treatment, cells were dissociated from plate using cell dissociation Buffer (ThermoFisher Scientific, #13150016) and were stained with LIVE/DEAD™ Fixable Violet Dead Cell Stain Kit, for 405 nm excitation (ThermoFisher Scientific, #L34963) for 30 minutes, as per the kit protocol. The cells were then washed using FACS buffer (DPBS, 1% BSA, 2 mM EDTA, 0.09% sodium azide) and transferred to 96-well round bottom plates. Resuspended cells were divided into three repeats for each sample, each was surface stained for 1 hour at 4 °C with: 1. Human IFN-alpha/beta R1 Antibody (R&D systems, #MAB245), 2. Mouse IgG1 Isotype Control (R&D systems, #MAB002), 3. FACS buffer (control cells).
Following incubation, cells were washed once with FACS buffer and were labelled for 30 minutes at 4 °C with either Biotin-SP-conjugated AffiniPure Donkey Anti-Mouse IgG (H+L) (Jackson Immunoresearch Laboratories) for samples 1 and 2 or with FACS buffer for sample 3. Cells were washed twice with FACS buffer and were labelled for 15 minutes at 4 °C with either R-Phycoerythrin-conjugated Streptavidin (Jackson Immunoresearch Laboratories) for samples 1 and 2 or with FACS buffer for sample 3. Cells were washed 3 times with FACS buffer and were analysed by FACS (MACSQuant, Miltenyi Biotec). For each sample from group 1 the Geo mean fluorescence intensity (MFI) of its isotype sample was reduced. IFNAR1 cell surface percentage was calculated by 100*(MFI

## O=C(NC1C2CNCC21)c1nn(C(=O)c2c(Cl)cccc2Cl)cc1NC(=O)c1c(Cl)cccc1Cl (stereo not shown) [FX-171-C]
BRISC; 32-point dose-response, biphasic fit, read-out: IC50(1), biphasic curve
  IC50: 7200 nM
BRISC; 32-point dose-response, biphasic fit, read-out: IC50(2), biphasic curve
  IC50: 149 nM
BRISC; BRISC WT, FX-171-C 0.35 μM, read-out: Normalised V0
  remaining activity at 0.35 µM: 54.2%
BRISC; BRISC WT, FX-171-C 6.25 μM, read-out: Normalised V0
  remaining activity at 6.25 µM: 13%
BRISC; FX-171-C IC50, BRISC WT, mutant panel (Extended Data Fig. 7c)
  IC50: 600 nM
BRISC; Fig. 1g, BRISC, FX-171-C 0.0599997 μM
  Normalised V0: 1.019
BRISC; Fig. 1g, BRISC, FX-171-C 0.0799994 μM
  Normalised V0: 0.9329 and 1.215 and 0.984
BRISC; Fig. 1g, BRISC, FX-171-C 0.119998 μM
  Normalised V0: 0.8991 and 1.297 and 1.1131
BRISC; Fig. 1g, BRISC, FX-171-C 0.199996 μM
  Normalised V0: 0.9109 and 1.1 and 0.9714
BRISC; Fig. 1g, BRISC, FX-171-C 0.499975 μM
  Normalised V0: 0.8337 and 0.8541 and 0.839
BRISC; Fig. 1g, BRISC, FX-171-C 0.799936 μM
  Normalised V0: 0.8201 and 0.7671 and 0.7222
BRISC; Fig. 1g, BRISC, FX-171-C 1.25984 μM
  Normalised V0: 0.7744 and 0.5965 and 0.5179
BRISC; Fig. 1g, BRISC, FX-171-C 1.9996 μM
  Normalised V0: 0.7381 and 0.4197 and 0.4126
BRISC; Fig. 1g, BRISC, FX-171-C 3.159 μM
  Normalised V0: 0.4028 and 0.2971 and 0.3289
BRISC; Fig. 1g, BRISC, FX-171-C 5.19739 μM
  Normalised V0: 0.6152 and 0.3188 and 0.3118
BRISC; HsBRISC, FX-171-C 0.0599997 μM, read-out: Normalised V0
  remaining activity at 0.0599997 µM: 102%
BRISC; HsBRISC, FX-171-C 0.199996 μM, read-out: Normalised V0
  remaining activity at 0.199996 µM: 91.1%
BRISC; HsBRISC, FX-171-C 0.499975 μM, read-out: Normalised V0
  remaining activity at 0.499975 µM: 83.4%
BRISC; HsBRISC, FX-171-C 0.799937 μM, read-out: Normalised V0
  remaining activity at 0.799937 µM: 82%
BRISC; HsBRISC, FX-171-C 3.159 μM, read-out: Normalised V0
  remaining activity at 3.159 µM: 40.3%
BRISC; HsBRISC, FX-171-C 19.96 μM, read-out: Normalised V0
  remaining activity at 19.96 µM: 18.8%
BRISC; HsBRISC, FX-171-C 31.4999 μM, read-out: Normalised V0
  remaining activity at 31.4999 µM: 18.9%
BRISC; HsBRISC, FX-171-C 79.7601 μM, read-out: Normalised V0
  remaining activity at 79.7601 µM: 22.3%
BRISC; HsBRISC, FX-171-C 125.99 μM, read-out: Normalised V0
  remaining activity at 125.99 µM: 16.2%
BRISC; IQF K63-linked diubiquitin substrate, read-out: IC50, inhibition of BRISC DUB activity
  IC50: 1400 nM
BRISC; [Inhibitor] 0.013 μM, replicate columns
  Normalised V0: 0.9661 and 1.259 and 1.028 and 1.106 and 0.9509 and 0.8874
BRISC; [Inhibitor] 0.02 μM, replicate columns
  Normalised V0: 0.8164 and 1.359 and 1.027
BRISC; [Inhibitor] 0.0399999 μM, replicate columns
  Normalised V0: 0.8327 and 1.212 and 1.032
BRISC; [Inhibitor] 0.0599997 μM, replicate columns
  Normalised V0: 1.019 and 1.179 and 1.007
BRISC; [Inhibitor] 0.0799994 μM, replicate columns
  Normalised V0: 0.9329 and 1.215 and 0.984
BRISC; [Inhibitor] 0.119998 μM, replicate columns
  Normalised V0: 0.8991 and 1.297 and 1.1131
BRISC; [Inhibitor] 0.199996 μM, replicate columns
  Normalised V0: 0.9109 and 1.1 and 0.9714
BRISC; [Inhibitor] 0.499975 μM, replicate columns
  Normalised V0: 0.8337 and 0.8541 and 0.839
BRISC; [Inhibitor] 0.799936 μM, replicate columns
  Normalised V0: 0.8201 and 0.7671 and 0.7222
BRISC; [Inhibitor] 1.25984 μM, replicate columns
  Normalised V0: 0.7744 and 0.5965 and 0.5179
BRISC; [Inhibitor] 1.9996 μM, replicate columns
  Normalised V0: 0.7381 and 0.4197 and 0.4126
BRISC; [Inhibitor] 3.159 μM, replicate columns
  Normalised V0: 0.4028 and 0.2971 and 0.3289
BRISC; [Inhibitor] 5.19739 μM, replicate columns
  Normalised V0: 0.6152 and 0.3188 and 0.3118
BRISC; [Inhibitor] 7.99364 μM, replicate columns
  Normalised V0: 0.4919 and 0.2336 and 0.2963
BRISC; [Inhibitor] 12.7839 μM, replicate columns
  Normalised V0: 0.5596 and 0.3112 and 0.2492
BRISC; [Inhibitor] 19.96 μM, replicate columns
  Normalised V0: 0.1876 and 0.174 and 0.161
BRISC; [Inhibitor] 31.4999 μM, replicate columns
  Normalised V0: 0.1887 and 0.2421 and 0.2131
BRISC; [Inhibitor] 50.147 μM, replicate columns
  Normalised V0: 0.05691 and 0.1395 and 0.2567
BRISC; [Inhibitor] 79.7601 μM, replicate columns
  Normalised V0: 0.2227 and 0.2164 and 0.1439
BRISC; [Inhibitor] 125.99 μM, replicate columns
  Normalised V0: 0.1622 and 0.2082 and 0.2077
BRISC; [Inhibitor] 199.922 μM, replicate columns
  Normalised V0: 0.03119 and 0.1486 and 0.1232
BRISC; human vs mouse and zebrafish BRISC
  potency ranking over BRISC orthologs: highest potency toward human BRISC over mouse and zebrafish BRISC
BRISC; inhibitor 0.000794328 μM
  Normalised velocity (V0): 1
BRISC; inhibitor 0.00125892 μM
  Normalised velocity (V0): 0.9709 and 1.087
BRISC; inhibitor 0.00199526 μM
  Normalised velocity (V0): 0.9893 and 1.074
BRISC; inhibitor 0.00316228 μM
  Normalised velocity (V0): 1.07 and 1.182
BRISC; inhibitor 0.00501187 μM
  Normalised velocity (V0): 1.042 and 1.106
BRISC; inhibitor 0.00794328 μM
  Normalised velocity (V0): 1.04 and 1.13
BRISC; inhibitor 0.0125893 μM
  Normalised velocity (V0): 0.9855 and 1.097
BRISC; inhibitor 0.0199526 μM
  Normalised velocity (V0): 1.04 and 1.062
BRISC; inhibitor 0.0316228 μM
  Normalised velocity (V0): 0.9173 and 1.065
BRISC; inhibitor 0.0501187 μM
  Normalised velocity (V0): 0.915 and 1.002
BRISC; inhibitor 0.0794328 μM
  Normalised velocity (V0): 0.8247 and 0.8903
BRISC; inhibitor 0.125893 μM
  Normalised velocity (V0): 0.6057 and 0.745
BRISC; inhibitor 0.199526 μM
  Normalised velocity (V0): 0.5727 and 0.6444
BRISC; inhibitor 0.316228 μM
  Normalised velocity (V0): 0.4326 and 0.4719
BRISC; inhibitor 0.398107 μM
  Normalised velocity (V0): 0.425 and 0.486
BRISC; inhibitor 0.630957 μM
  Normalised velocity (V0): 0.3369 and 0.3696
BRISC; inhibitor 1 μM
  Normalised velocity (V0): 0.2871 and 0.3028
BRISC; inhibitor 1.58489 μM
  Normalised velocity (V0): 0.2427 and 0.2962
BRISC; inhibitor 2.51189 μM
  Normalised velocity (V0): 0.2711 and 0.2368
BRISC; inhibitor 3.98107 μM
  Normalised velocity (V0): 0.2213 and 0.2236
BRISC; inhibitor 6.30957 μM
  Normalised velocity (V0): 0.121 and 0.1898
BRISC; inhibitor 10 μM
  Normalised velocity (V0): 0.08882 and 0.07343
BRISC; inhibitor 15.8489 μM
  Normalised velocity (V0): 0.08806 and 0.08498
BRISC; inhibitor 25.1189 μM
  Normalised velocity (V0): 0
BRISC; inhibitor 39.8107 μM
  Normalised velocity (V0): 0
BRISC; inhibitor 63.0957 μM
  Normalised velocity (V0): 0
BRISC; inhibitor 100 μM
  Normalised velocity (V0): 0
[1]; IFN + compound, three replicates
  IFNAR1 cell surface levels: 42.0302 and 41.4187 and 41.1741
[1]; sgROSA cells, IFN 50 ng/ml, 5 μM, 90 min
  IFNAR1 cell surface levels: reduction in IFNAR1 cell surface levels
